Data taken from patent publication US20060104903A1, “Model for evaluating the efficacy of locally applied antiproliferatives or other agents on neointimal hyperplasia, immunohistochemical and vascular cell cycle changes in balloon-injured rat carotid arteries” (priority 2004, published 2006).

Tests used:
Assay type in all cases: in vivo
[1] = system: balloon-injured rat carotid artery; experiment: Cell proliferation in injured rat carotid artery, PCNA immunohistochemistry; conditions: 200 μg in pluronic gel suspension, perivascular, seven days post injury
Procedure: (§1) The delivery vehicle may comprise any suitable device. In the exemplary embodiment, the delivery vehicle comprises silastic tubing as illustrated in FIG. 1. The silastic tubing 300 is about 10 mm long with an outside diameter of about 1.5 mm. The total luminal volume, based upon emperical measurement, is about 20 μL. It is important to note that the silastic tubing 300 may comprise any suitable length. The length of the tubing is determined by the amount of artery resected. The silastic tubing may comprise a notch 302 on one end to facilitate placement thereof over the carotid artery. The silastic tubing is then autoclaved prior to surgery. The silastic tubing is filled with about 20 μL of the pluronic gel comprising a suspension, solution or combination suspension and solution of test agent. The pluronic gel formulation to be encased within the silastic tubing is dispersed into the silastic tubing utilizing a 20 μL adjustable pipette with a sterile tip. The pluronic vehicle or pluronic drug solution remains on ice until immediately before pipetting and dispensing into the silastic tubing.
(§2) The next step in the process comprises the surgical procedure. The rat is anesthetized prior to surgical intervention. The rat may be anesthetized utilizing any number of anesthetizing agents, both inhalational and/or injectable. […]

[2] = system: balloon-injured rat carotid artery; experiment: Neointimal hyperplasia in balloon-injured rat carotid artery, histomorphometric analysis after perivascular delivery
Procedure: as §1, §2

[3] = system: balloon-injured rat carotid artery; experiment: Vascular wall cell cycle and apoptotic nuclei in injured rat carotid artery, flow cytometry (propidium iodide); conditions: 200 μg in pluronic gel suspension, perivascular, seven days post injury
Procedure: as §1, §2

Q: How did the “neointimal proliferation (PCNA labeling)” value [1] turn out when CC[C@@]1(O)C(=O)OCc2c1cc1n(c2=O)Cc2cc3c(CN(C)C)c(O)ccc3nc2-1 [Topotecan] was run?
A: substantially no effect

Q: For CC(=O)O[C@H]1C(=O)[C@@]2(C)[C@H]([C@H](OC(=O)c3ccccc3)[C@]3(O)C[C@H](OC(=O)[C@H](O)[C@@H](NC(=O)c4ccccc4)c4ccccc4)C(C)=C1C3(C)C)[C@]1(OC(C)=O)CO[C@@H]1C[C@@H]2O [paclitaxel], which “neointimal proliferation (PCNA labeling)” value [1] is on record?
A: significantly reduce

Q: And the “neointima formation (FIG. 3 slides)” value ([2]; 200 μg in pluronic gel, perivascular administration)?
A: substantial-reduction

Q: What about the “neointimal formation (FIG. 2)” value ([2]; perivascular application) of the same molecule?
A: significantly reduced

Q: And the “percentage nuclei in the G0/G1 phases” value [3]?
A: increases

Q: What about the “total percentage of apoptotic cells in the injured vessel wall” value [3] of the same molecule?
A: increase
